{"source": "patent US20250345340A1", "about": "“METHODS FOR THE PREVENTION AND TREATEMENT OF POST-OPERATIVE ABDOMINAL ADHESIONS” (UNIVERSITY OF ROCHESTER, priority 2024, published 2025)", "key": {"[1]": {"tested_on": "post-operative abdominal adhesions", "assay": "Murine abdominal adhesion surgery model (cecum and abdominal wall abrasion, silk sutures, starch)", "type": "in vivo, C57Bl/6J mice", "source_text": "Murine Abdominal Adhesion Surgery: Mature adult (16-20-week-old) C57Bl/6J male and female mice underwent abdominal surgery to induce adhesions consistent with those observed postoperatively in clinical settings. Briefly, following sedation, a vertical midline laparotomy incision, extending from the xyphoid process to just above the bladder (˜4 cm), is made through the abdominal skin and musculature. The cecum is identified and eviscerated, followed by gentle abrasion with sterile 100-grit sandpaper for 30-60 seconds. Hemostasis is ensured and the cecum is then returned to the abdominal cavity. The abdominal wall is then abraded with sterile 100-grit sandpaper, followed by placement of two-four 4-0 silk sutures, which are placed into the abdominal wall. The intestines are then irrigated with warmed sterile saline, and hemostasis is confirmed. A small pinch of sterile autoclaved rice starch is then sprinkled on the cecum and abdominal sidewall. The laparotomy is closed with absorbable, interrupted sutures used to reapproximate the fascia and followed by sutures to close the skin. The skin is closed with skin adhesive.\nScoring of gross adhesion formation: At time of harvest, digital photographic images will be taken of the abdominal cavity of each mouse, with images standardized to a lateral reflection of abdominal wall prior to manipulation of intra-abdominal contents. These images are then curated in a Research Electronic Data Capture (RedCap)-based survey for blinded scoring. Adhesions are scored from 0-5: with ‘0’ indicating no adhesions; 1: a single thin, filmy adhesion; 2: more than one filmy adhesion; 3: one thick adhesion with focal attachment (+thin filmy adhesions); 4: one thick adhesion with broad planar attachment (+thin filmy adhesions); and 5: >1 thick adhesion with broad planar attachment, or >1 thick vascular adhesion with planar attachment (+thin filmy adhesions). Images are scored by at least 5 surgeons trained on the scoring process, with the mean of these scores reported for each mouse.\nHistological assessment of adhesions and ileal smooth muscle hypertrophy: Following digital image capture, the area of adhesion between the abdominal wall and bowel (or other organs), including any bowel: bowel adhesions is isolated, fixed in 10% neutral buffered formalin, and processed for paraffin histology. In cases of adhesion absence, the abdominal wall and cecum are harvested and sectioned separately. Five-micron transverse sections are cut through the tissue. To ensure accurate quantification of adhesions, tissue sections are collected through multiple depths through the tissue. […] Adhesion extent (length and cross-sectional area) along both the abdominal wall/cecal surface and between organs are quantified from H&E images by ≥2 blinded observers. […]\nAt harvest, the study took pictures of the peritoneal cavity, which were scored by 4 blinded, board certified surgeons adhesion scores ranged from 0 (none) to 5 (dense, vascular, adhesions).\nThe study chose the area of highest visible fibrosis and adhesion density. […] Adhesions were then measured in micrometers. Length of adhesions between the bowel to abdominal wall and bowel to bowel were measured. The total adhesion density (excluding abdominal wall fibrosis) was then measured by cross section. […]"}, "lung fibroblasts": {"tested_on": "lung fibroblasts", "conditions": "cited from earlier work"}}, "note": "“Also recorded” adds a separate entry of the source.", "data": [{"smiles": "Nc1nc(NCc2ccccc2)nc(-c2ccccc2CO)n1", "note": "[ogerin]", "values": [{"measurement": "length of adhesions between the bowel and abdominal wall and bowel to bowel", "setting": "[1]; histology, POD10, vs control", "result": "reduction in length of adhesions"}, {"measurement": "overall adhesion cross section (total adhesion burden by area)", "setting": "[1]; histology, POD10, vs control", "result": "significantly lower; also recorded: reduces total adhesion burden"}, {"measurement": "clinical adhesion score (0-5, blinded surgeons)", "setting": "[1]; ogerin injected POD 0-5, harvest POD10, vs vehicle", "result": "reduces clinical adhesion score; also recorded: significantly lower"}, {"measurement": "adhesion formation (gross)", "setting": "[1]; ogerin injected POD 0-5, harvest POD10, vs vehicle DMSO:Saline 60:40", "result": "blunts adhesion formation; also recorded: substantial decrease in adhesion formation"}, {"measurement": "mice demonstrating a complete lack of adhesion formation", "setting": "[1]; ogerin injected POD 0-5, harvest POD10, all vehicle mice formed robust adhesions", "result": "3 out of 4"}, {"measurement": "TGF-b-induced myofibroblast differentiation", "setting": "lung fibroblasts", "result": "blunts"}, {"measurement": "reversion to a basal fibroblast phenotype following TGF-β-induced myofibroblast differentiation", "setting": "lung fibroblasts", "result": "can promote reversion"}]}]}
